Measured values: US8975415B2, “Chromane compounds” (CoMentis, Inc., priority 2012, dated 2015)
pIC50, pKi: −log10 of the molar value.

Key:
BACE1 [1] = molecular target: T1, BACE1 (Homo sapiens (Human), UniProt P56817); assay: Measurement of BACE1 inhibition by fluorescence resonance energy transfer (FRET), MCA substrate; details: for pKi: read-out: Test Example 1 BACE1 MCA Ki, MCA substrate; for pKi / pIC50: FRET; for pIC50: read-out: Test Example 1 IC50, MCA-SEVNLDAEFK(DNP)-NH2 substrate, pH 4.4
Target sequence in this assay (P56817 75-416): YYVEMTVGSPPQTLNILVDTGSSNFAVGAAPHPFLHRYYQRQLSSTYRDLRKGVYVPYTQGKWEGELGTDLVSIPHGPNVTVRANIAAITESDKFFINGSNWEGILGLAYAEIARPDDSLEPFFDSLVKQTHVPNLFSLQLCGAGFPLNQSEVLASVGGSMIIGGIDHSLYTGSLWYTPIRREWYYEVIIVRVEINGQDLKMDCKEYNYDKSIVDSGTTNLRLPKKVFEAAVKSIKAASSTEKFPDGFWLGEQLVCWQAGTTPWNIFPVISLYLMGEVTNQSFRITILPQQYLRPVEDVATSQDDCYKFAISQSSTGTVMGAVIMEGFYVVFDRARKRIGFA

BACE1 [2] = molecular target: T1, BACE1; assay: Measurement of Aβ production inhibition in cell (SK-N-BE(2) neuroblastoma cells, Aβ40 ELISA); details: Test Example 3 IC50, Aβ40 production, SK-N-BE(2) cells, 6 hours
Target sequence in this assay (P56817 46-501): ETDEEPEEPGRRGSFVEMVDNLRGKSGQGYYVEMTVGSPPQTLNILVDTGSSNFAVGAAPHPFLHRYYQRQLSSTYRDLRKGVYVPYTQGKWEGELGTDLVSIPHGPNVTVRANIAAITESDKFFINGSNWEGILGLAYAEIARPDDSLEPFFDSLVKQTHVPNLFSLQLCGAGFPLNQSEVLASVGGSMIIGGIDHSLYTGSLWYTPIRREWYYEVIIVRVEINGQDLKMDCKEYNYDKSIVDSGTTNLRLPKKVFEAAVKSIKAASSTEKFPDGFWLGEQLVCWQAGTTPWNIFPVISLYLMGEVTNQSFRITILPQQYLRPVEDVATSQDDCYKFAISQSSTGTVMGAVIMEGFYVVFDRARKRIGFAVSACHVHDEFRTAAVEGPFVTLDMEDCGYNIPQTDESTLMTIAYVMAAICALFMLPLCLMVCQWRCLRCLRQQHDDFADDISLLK

pIC50 (BACE1 [1]) | Structure (SMILES) | pIC50 (BACE1 [2]) | also measured
 | NC1=NC2(CO1)c1cc(NC(=O)c3ccc(Cl)cn3)ccc1OCC21CC1 (stereo not drawn) [RP 32] |  | pKi (BACE1 [1]): 6.42
4.76 | Cc1cccc(CCc2ccc3c(c2)C2(COC(N)=N2)C2(COC2)CO3)c1 (stereo not drawn) [RP 38] |  | 
5.44 | N#Cc1cc(-c2ccc3c(c2)C2(COC(N)=N2)C2(COC2)C2(CCC2)O3)ccc1F (stereo not drawn) [RP 134] |  | 
4.71 | CC(C)CC1Oc2ccc(Br)cc2C2(COC(N)=N2)C12COC2 (single isomer, unassigned) [RP 13b] |  | 
4.59 | COCCCc1ccc2c(c1)C1(COC(N)=N1)C1(COC1)CO2 (stereo not drawn) [RP 35] |  | 
5.44 | CC1CC=C(c2ccc3c(c2)C2(COC(N)=N2)C2(COC2)C(C)(C)O3)CC1 (stereo not drawn) [RP 166] |  | 
 | CC#Cc1ccnc(-c2ccc3c(c2)C2(COC(N)=N2)C2(COC2)CO3)c1 (stereo not drawn) [RP 56] | 6.13 | 
4.95 | CC(C)CC1Oc2ccc(Br)cc2C2(COC(N)=N2)C12COC2 (single isomer, unassigned) [RP 13a] |  | 
4.52 | NC1=NC2(CO1)c1cc(Br)ccc1OCC21CC1 (stereo not drawn) [RP 17] |  | 
5.98 | COc1cc(-c2ccc3c(c2)C2(COC(N)=N2)C2(COC2)C(C)(C)O3)c(Cl)cn1 (stereo not drawn) [RP 162] |  | 
4.09 | NC1=NC2(CO1)c1cc(Br)ccc1OC(C1CC1)C21COC1 (single isomer, unassigned) [RP 12b] |  | 
4.21 | NC1=NC2(CO1)c1cc(Br)ccc1OCC21CCC1 (stereo not drawn) [RP 8] |  | 
4.30 | NC1=NC2(CO1)c1cc(Br)ccc1OCC21CC(F)(F)C1 (stereo not drawn) [RP 188] |  | 
4.61 | CCC1Oc2ccc(Br)cc2C2(COC(N)=N2)C12COC2 (single isomer, unassigned) [RP 9b] |  | 
4.45 | Cc1ncccc1-c1ccc2c(c1)C1(COC(N)=N1)C1(COC1)C1(CCC1)O2 (stereo not drawn) [RP 74] |  | 
4.35 | NC1=NC2(CO1)c1cc(Br)ccc1OC(CCC(F)(F)F)C21COC1 (single isomer, unassigned) [RP 14b] |  | 
4.76 | CCC1Oc2ccc(Br)cc2C2(COC(N)=N2)C12COC2 (single isomer, unassigned) [RP 9a] |  | 
5.85 | COc1cc(-c2ccc3c(c2)C2(COC(N)=N2)C2(COC2)C(C)(C)O3)c(F)cn1 (stereo not drawn) [RP 161] |  | 
4.17 | NC1=NC2(COC1)c1cc(Br)ccc1OCC21COC1 (stereo not drawn) [RP 114, 6′-bromo-6H-dispiro[1,4-oxazine-3,4′-chromene-3′,3″-oxetan]-5-amine] |  | 
4.33 | NC1=NC2(c3cc(Br)ccc3OCC23CC3)c2cccc(F)c21 (stereo not drawn) [RP 40, 6′-bromo-4″-fluorodispiro[cyclopropane-1,3′-chromene-4′,1″-isoindol]-3″-amine] |  | 
4.41 | NC1=NC2(CO1)c1cc(Br)ccc1OC(C1CC1)C21COC1 (single isomer, unassigned) [RP 12a] |  | 
4.47 | NC1=NC2(CO1)c1cc(Br)ccc1OC1(CCC1)C21COC1 (stereo not drawn) [RP 3] |  | 

pIC50 (BACE1 [1]) | Structure (SMILES) | pIC50 (BACE1 [2]) | also measured
5.67 | CC1(C)Oc2ccc(-c3ccnc(Cl)c3Cl)cc2C2(COC(N)=N2)C12COC2 (stereo not drawn) [RP 159] |  | 
3.86 | NC1=NC2(CO1)c1cc(Br)ccc1OCC21CCCO1 (single isomer, unassigned) [RP 1b, 6′-bromo-4,5-dihydro-3H-dispiro[furan-2,3′-chromene-4′,4″-[1,3]oxazol]-2″-amine] |  | 
4.13 | NC1=NC2(CO1)c1cc(Br)ccc1OCC21CCCO1 (single isomer, unassigned) [RP 1a, 6′-bromo-4,5-dihydro-3H-dispiro[furan-2,3′-chromene-4′,4″-[1,3]oxazol]-2″-amine] |  | 
4.72 | NC1=NC2(CO1)c1cc(Br)ccc1OC(CCC(F)(F)F)C21COC1 (single isomer, unassigned) [RP 14a] |  | 
6.06 | CCC/C=C/c1ccc2c(c1)C1(COC(N)=N1)C1(COC1)C(C)(C)O2 (stereo not drawn) [RP 167] |  | 
5.47 | NC1=NC2(CO1)c1cc(-c3ccc(F)nc3F)ccc1OC1(CCC1)C21COC1 (stereo not drawn) [RP 121] |  | 
4.81 | CCCC1Oc2ccc(Br)cc2C2(C=C(N)OC2)C12COC2 (single isomer, unassigned) [RP 11a] |  | 
4.25 | NC1=NC2(c3cc(Br)ccc3OCC23CC3)C(F)(F)CO1 (stereo not drawn) [RP 216, 6′-bromo-5″,5″-difluoro-5″,6″-dihydrodispiro[cyclopropane-1,3′-chromene-4′,4″-[1,3]oxazin]-2″-amine] |  | 
 | COc1cnc(C(=O)Nc2ccc3c(c2)C2(COC(N)=N2)C2(COC2)C(C)(C)O3)cn1 (stereo in doubt) [Example 229a, N-[(4S)-2-amino-2′,2′-dimethyldispiro[1,3-oxazole-4,4′-chromene-3′,3″-oxetan]-6′-yl]-5-methoxypyrazine-2-carboxamide] |  | inhibition at 30 µM (BACE1 [1]; read-out: Test Example 1 inhibition): 47.6%
6.01 | CC1(C)Oc2ccc(-c3cncc(C#N)c3)cc2C2(COC(N)=N2)C12COC2 (stereo not drawn) [RP 160] |  | 
5.44 | NC1=NC2(CO1)c1cc(-c3ccccc3F)ccc1OC1(CCC1)C21COC1 (stereo not drawn) [RP 124] |  | 
4.38 | NC1=NC2(CO1)c1cc(Br)c(F)cc1OCC21CC1 (stereo not drawn) [RP 18] |  | 
4.76 | CCCC1Oc2ccc(Br)cc2C2(C=C(N)OC2)C12COC2 (single isomer, unassigned) [RP 11b] |  | 
4.75 | NC1=NC2(CO1)c1cc(-c3cccnc3C(F)(F)F)ccc1OC1(CCC1)C21COC1 (stereo not drawn) [RP 212] |  | 
4.22 | NC1=NC2(CO1)c1cc(Br)ccc1OCC21COC1 (stereo not drawn) [RP 2] |  | 
6.12 | CC1(C)Oc2ccc(C3=CCCCCC3)cc2C2(COC(N)=N2)C12COC2 (stereo not drawn) [RP 165] |  | 
4.39 | NC1=NC2(COC1)c1cc(Br)ccc1OCC21CC1 (stereo not drawn) [RP 214, 6′-bromo-6″H-dispiro[cyclopropane-1,3′-chromene-4′,3″-[1,4]oxazin]-5″-amine] |  | 
5.45 | NC1=NC2(CO1)c1cc(-c3ccc(F)nc3)ccc1OC1(CCC1)C21COC1 (stereo not drawn) [RP 119] |  | 
6.03 | CCSc1cccc(-c2ccc3c(c2)C2(COC(N)=N2)C2(COC2)C(C)(C)O3)c1 (stereo not drawn) [RP 145] |  | 
4.43 | NC1=NC2(CO1)c1cc(Nc3ccccn3)ccc1OCC21COC1 (stereo not drawn) [RP 25] |  | 
5.90 | CC1(C)Oc2ccc(-c3cccc(OCC(F)(F)F)c3)cc2C2(COC(N)=N2)C12COC2 (stereo not drawn) [RP 143] |  | 
5.47 | NC1=NC2(CO1)c1cc(-c3ccccc3)ccc1OC1(CCC1)C21COC1 (stereo not drawn) [RP 123] |  | 

Structure (SMILES) | pIC50 (BACE1 [1]) | pIC50 (BACE1 [2]) | also measured
NC1=NC2(CO1)c1cc(-c3cc(F)ccc3F)ccc1OC1(CCC1)C21COC1 (stereo not drawn) [RP 130] | 5.73 | 5.77 | 
NC1=NC2(CO1)c1cc(-c3cncnc3)ccc1OC(C1CC1)C21COC1 (stereo not drawn) [RP 89] | 5.33 |  | 
CC(C)CC1Oc2ccc(-c3cncnc3)cc2C2(COC(N)=N2)C12COC2 (stereo not drawn) [RP 93] | 6.20 | 6.43 | 
CC#Cc1cncc(-c2cc3c(cc2F)OCC2(CC2)C32COC(N)=N2)c1 (stereo not drawn) [RP 112] | 6.40 | 6.18 | 
COc1cncc(-c2ccc3c(c2)[C@@]2(COC(N)=N2)C2(COC2)[C@@H](C)O3)c1 (racemic) [RP 81] | 5.72 | 6.29 | 
CC1(C)Oc2ccc(-c3cc(F)cc(F)c3)cc2C2(COC(N)=N2)C12COC2 (stereo not drawn) [RP 147] | 6.21 | 6.77 | 
NC1=NC2(CO1)c1cc(-c3cncc(OCC(F)(F)C(F)F)c3)ccc1OCC21CC1 (stereo not drawn) [RP 64] | 5.21 | 5.64 | 
CCC(CC)Cc1ccc2c(c1)C1(COC(N)=N1)C1(COC1)C1(CCC1)O2 (stereo not drawn) [RP 47] | 5.63 | 5.85 | 
COc1cccc(-c2ccc3c(c2)C2(COC(N)=N2)C2(COC2)C2(CCC2)O3)c1F (stereo not drawn) [RP 137] | 6.11 | 6.08 | 
NC1=NC2(CO1)c1cc(-c3cccnc3F)ccc1OCC21CC1 (stereo not drawn) [RP 103] | 5.66 | 6.35 | 
CC#Cc1cncc(-c2ccc3c(c2)C2(COC(N)=N2)C2(COC2)C2(CCC2)O3)c1 (stereo not drawn) [RP 109] | 6.82 | 7.32 | pKi (BACE1 [1]): 6.92
COc1cnc(C(=O)Nc2ccc3c(c2)C2(COC(N)=N2)C2(CC2)CO3)cn1 (stereo not drawn) [RP 193] | 5.98 | 7.09 | 
CC1(C)Oc2ccc(-c3cc(F)cc(Cl)c3)cc2C2(COC(N)=N2)C12COC2 (stereo not drawn) [RP 146, 6′-(3-chloro-5-fluorophenyl)-2′,2′-dimethyldispiro[1,3-oxazole-4,4′-chromene-3′,3″-oxetan]-2-amine] | 6.65 | 6.68 | pKi (BACE1 [1]): 6.73
CCCC1Oc2ccc(-c3cncnc3)cc2C2(COC(N)=N2)C12COC2 (stereo not drawn) [RP 94] | 6.06 | 6.42 | 
N#Cc1cccc(-c2ccc3c(c2)C2(COC(N)=N2)C2(COC2)C2(CCC2)O3)c1 (stereo not drawn) [RP 128] | 5.77 | 5.82 | 
CCOc1cccc(-c2ccc3c(c2)C2(COC(N)=N2)C2(COC2)C(C)(C)O3)c1 (stereo not drawn) [RP 144] | 6.06 | 6.34 | 
CC1(C)Oc2ccc(-c3cccc(C(F)(F)F)c3)cc2C2(COC(N)=N2)C12COC2 (stereo not drawn) [RP 141] | 6.04 | 5.89 | 
C#Cc1cncc(-c2ccc3c(c2)C2(COC(N)=N2)C2(COC2)CO3)c1 (stereo not drawn) [RP 23] | 6.28 | 6.05 | 
N#Cc1cncc(-c2ccc3c(c2)C2(COC(N)=N2)C2(COC2)C2(CCC2)O3)c1 (stereo not drawn) [RP 120] | 5.72 | 5.64 | 
Cc1cnc(Cl)c(-c2ccc3c(c2)C2(COC(N)=N2)C2(COC2)C(C)(C)O3)c1 (stereo not drawn) [RP 151] | 5.87 | 6.55 | 
CC1(C)Oc2ccc(-c3cncnc3)cc2C2(COC(N)=N2)C12COC2 (single isomer, unassigned) [RP 51a, 2′,2′-dimethyl-6′-(pyrimidin-5-yl)dispiro[1,3-oxazole-4,4′-chromene-3′,3″-oxetan]-2-amine] | 4.31 |  | 
COc1cccc(-c2ccc3c(c2)C2(COC(N)=N2)C2(COC2)C2(CCC2)O3)c1 (stereo not drawn) [RP 126] | 6.16 | 5.92 | 
NC1=NC2(CO1)c1cc(-c3cncnc3)ccc1OCC21CCCO1 (stereo not drawn) [RP 98] | 4.19 |  | 
NC1=NC2(CO1)c1cc(-c3cc(Cl)cnc3F)ccc1OC1(CCC1)C21COC1 (stereo not drawn) [RP 73] | 6.08 | 7.15 | 
COc1cncc(-c2ccc3c(c2)C2(COC(N)=N2)C2(COC2)C2(CCC2)O3)c1 (stereo not drawn) [RP 72] | 6.09 | 7.17 | 
